Among the test systems are A549 NSCLC; CCRF-CEM leukemia; COLO 205 colon; MDA-MB-435; NCI-H226 lung; OVCAR-5 ovarian; SK-OV-3 ovarian; SN12C renal; SNB-19 CNS; UACC-62 melanoma.
What all share (test): NCI tumour cell line growth inhibition, 48 h

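Assay format: 96-well plates, 48-hour exposure. GI50: concentration for 50% inhibition of growth. The concentration for full growth arrest is given as TGI.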 Where a SMILES comes first, the peptide text is derived from it. [ ]: non-standard residue; d: D form. ξ: configuration not given here. Pentanoyl(2-O,4-OH,5-Cl) = O=C(O)C(O)CC(O)CCl; Ile(3ξ) = CCC(C)[C@H](N)C(=O)O; NMeV = CN[C@H](C(=O)O)C(C)C; NMeA = CN[C@@H](C)C(=O)O; βAla = NCCC(=O)O Some results are limits rather than exact numbers.

In the case of `CN1CCN(c2ccc3nc(-c4[nH]ncc4Nc4ncnc5[nH]ccc45)[nH]c3c2)CC1`, the GI50 with A549 NSCLC was 1740 nM; in the test on CCRF-CEM leukemia, 171 nM; in the test on COLO 205 colon, 147 nM; in the test on MDA-MB-435 it was 303 nM; with NCI-H226 lung, 0.212 µM; with OVCAR-5 ovarian, 418 nM. The GI50 is 0.371 µM in the test with SK-OV-3 ovarian, 358 nM with SN12C renal, 0.349 µM in the test on SNB-19 CNS and 0.241 µM in the test on UACC-62 melanoma. In addition, the TGI with A549 NSCLC worked out at 15 µM; in the test on CCRF-CEM leukemia, 22.3 µM; in the test with COLO 205 colon it was 0.695 µM; in the test on MDA-MB-435, 1.61 µM; in the test on NCI-H226 lung it was 1.01 µM; in the test on OVCAR-5 ovarian it was 9.19 µM. For the same molecule, the TGI in the test on SK-OV-3 ovarian was 12.7 µM; with SN12C renal it was 5.71 µM; with SNB-19 CNS it was 3.88 µM; in the test with UACC-62 melanoma it was 1.56 µM.

`CCC(C)[C@@H]1NC(=O)[C@@H]2CCCN2C(=O)C(CC(O)CCl)OC(=O)CCNC(=O)[C@H](C)N(C)C(=O)[C@H](C(C)C)N(C)C1=O` (stereo not given in full) (cyclo([Ile(3ξ)][NMeV][NMeA][βAla][Pentanoyl(2-O,4-OH,5-Cl)]P)): the TGI in the test on A549 NSCLC is greater than 100 µM; with CCRF-CEM leukemia it was greater than 100 µM; in the test with COLO 205 colon, greater than 31.6 µM; with MDA-MB-435, greater than 100 µM; in the test with NCI-H226 lung, greater than 100 µM; in the test with OVCAR-5 ovarian, greater than 100 µM. For the same molecule, the TGI with SK-OV-3 ovarian is greater than 100 µM; in the test with SN12C renal, greater than 100 µM; in the test with SNB-19 CNS, greater than 100 µM; in the test on UACC-62 melanoma it was 7.71 µM.

`CC(=O)Nc1ccc(CC[C@H]2CCC/C=C/[C@@H]3C[C@H](O)C[C@H]3[C@H](O)/C=C/C(=O)O2)cc1`: the GI50 is 309 nM with A549 NSCLC; 320 nM in the test with CCRF-CEM leukemia; 139 nM with COLO 205 colon; 151 nM in the test on MDA-MB-435; 0.0667 µM with NCI-H226 lung; 346 nM with OVCAR-5 ovarian. Also, the GI50 in the test on SK-OV-3 ovarian was 0.0667 µM; in the test on SN12C renal, 333 nM; with SNB-19 CNS, 0.231 µM; in the test on UACC-62 melanoma it was 0.0434 µM. The TGI was greater than 100 µM in the test on A549 NSCLC; greater than 100 µM in the test on CCRF-CEM leukemia; 0.283 µM in the test on COLO 205 colon; greater than 100 µM in the test on MDA-MB-435; 0.295 µM in the test on NCI-H226 lung; greater than 66.4 µM in the test on OVCAR-5 ovarian. Moreover, the TGI in the test with SK-OV-3 ovarian was greater than 100 µM; in the test on SN12C renal it was greater than 100 µM; in the test on SNB-19 CNS, greater than 100 µM; in the test with UACC-62 melanoma, greater than 92.4 µM.

As to `CCCN1CCC(Oc2cc(Nc3nc(Nc4cccc(F)c4C(N)=O)c4cc[nH]c4n3)c(OC)cc2Cl)CC1`, the GI50 is 2640 nM in the test with A549 NSCLC; 3450 nM in the test with CCRF-CEM leukemia; 417 nM in the test on COLO 205 colon; 1350 nM with MDA-MB-435; 3.64 µM in the test with NCI-H226 lung; 3440 nM in the test with OVCAR-5 ovarian. The GI50 in the test on SK-OV-3 ovarian was 4.87 µM; in the test on SN12C renal, 3970 nM; with SNB-19 CNS it was 4.18 µM; in the test with UACC-62 melanoma it was 3.61 µM. Further, the TGI with A549 NSCLC was 5.95 µM; in the test with CCRF-CEM leukemia, 10.1 µM; with COLO 205 colon it was 0.806 µM; with MDA-MB-435, 5.32 µM; in the test on NCI-H226 lung, 10.7 µM; in the test with OVCAR-5 ovarian, 7.27 µM. The TGI with SK-OV-3 ovarian came to 14 µM; in the test on SN12C renal it was 7.99 µM; with SNB-19 CNS it was 8.33 µM; with UACC-62 melanoma, 7.09 µM.

Take `COc1ccc(CC(C)NCC(O)c2ccc(O)c(NC=O)c2)cc1` (stereo not given): the TGI in the test on A549 NSCLC, in the test with CCRF-CEM leukemia, with COLO 205 colon, in the test on MDA-MB-435, in the test on NCI-H226 lung and with OVCAR-5 ovarian was greater than 100 µM throughout. Also, the TGI in the test with SK-OV-3 ovarian, with SN12C renal, with SNB-19 CNS and in the test on UACC-62 melanoma was greater than 100 µM each time.

Take `COc1ccc(-c2nn3ncccc3c2-c2ccnc(Nc3ccc(F)c(F)c3)n2)cc1`: the GI50 was 7520 nM in the test with A549 NSCLC; 11200 nM in the test with CCRF-CEM leukemia; 15500 nM with COLO 205 colon; 7390 nM in the test with MDA-MB-435; 13.9 µM in the test with NCI-H226 lung; 11600 nM with OVCAR-5 ovarian. Also, the GI50 in the test with SK-OV-3 ovarian was 10.5 µM; with SN12C renal, 10400 nM; in the test on SNB-19 CNS it was 14.3 µM; in the test on UACC-62 melanoma it was 7.12 µM. The TGI in the test with A549 NSCLC, in the test on CCRF-CEM leukemia, with COLO 205 colon, in the test on MDA-MB-435, in the test on NCI-H226 lung and in the test with OVCAR-5 ovarian was greater than 25 µM in each case. Moreover, the TGI with SK-OV-3 ovarian, in the test on SN12C renal, in the test with SNB-19 CNS and in the test on UACC-62 melanoma was greater than 25 µM each time.

`COc1cc2c(cc1OCCCCCOc1ccc(-c3nc4ccccc4s3)cc1)N=C[C@@H]1CCCN1C2=O`: the GI50 with A549 NSCLC was 5290 nM; in the test on CCRF-CEM leukemia it was 2480 nM; in the test on COLO 205 colon, 1320 nM; with MDA-MB-435 it was 10500 nM; with NCI-H226 lung, 3.02 µM; with OVCAR-5 ovarian, 2740 nM. In addition, the GI50 in the test on SK-OV-3 ovarian is 8.97 µM; in the test with SN12C renal, 2950 nM; with SNB-19 CNS, 5.08 µM; with UACC-62 melanoma it was 3.27 µM. Moreover, the TGI in the test on A549 NSCLC was 20.4 µM; in the test with CCRF-CEM leukemia, greater than 100 µM; in the test with COLO 205 colon, 6.53 µM; in the test with MDA-MB-435, 69.2 µM; in the test with NCI-H226 lung, 10.4 µM; in the test on OVCAR-5 ovarian it was 19.2 µM. Moreover, the TGI with SK-OV-3 ovarian was greater than 25.6 µM; in the test with SN12C renal, 18.9 µM; in the test with SNB-19 CNS, 20.8 µM; in the test with UACC-62 melanoma, 7.93 µM.

On to `Clc1ccc(NCNC2Nc3ccccc3N2)cc1Cl`, for which the TGI in the test with A549 NSCLC is greater than 100 µM; in the test on CCRF-CEM leukemia, greater than 100 µM; in the test on COLO 205 colon, greater than 100 µM; in the test on MDA-MB-435 it was 93.2 µM; in the test with NCI-H226 lung it was greater than 100 µM; in the test on OVCAR-5 ovarian, greater than 100 µM. Moreover, the TGI in the test with SK-OV-3 ovarian, in the test with SN12C renal, with SNB-19 CNS and in the test on UACC-62 melanoma was greater than 100 µM in each case.

Values taken from PubChem BioAssay (NCI).
